“And” between values parts separate entries of the source, which are not always exact repeats. Identical values can stand only once.
What was measured:
Assay type in all cases: in vivo
[1] = test system: oriental cockroaches (Blatta orientalis); assay: Synergistic action on oriental cockroaches, treated jar bottom; conditions: single substance; kill rate after 48 hours
Experimental: Synergistic action on oriental cockroaches (Blatta orientalis)
After the solvent has evaporated, 5 adult cockroaches (Blatta orientalis) are placed in each jar, and the kill rate is determined after 48 hours.
The application rates are in logarithmic progression and permit a dose-effect curve to be drawn; the LD50 is determined graphically and serves as a basis for assessment.

[2] = test system: houseflies (Musca domestica); assay: Synergistic action on houseflies, dip experiment; conditions: single substance; active ingredient concentration in %
Experimental: Synergistic action on houseflies (Musca domestica; dip experiment)
100 ml of aqueous active ingredient formulations (active ingredient concentration in %) is poured over 20 adult houseflies (Musca domestica) on a filter in a nutsch (15 cm in diameter). A gauze lid prevents the animals from surfacing during treatment. After 5 seconds the formulation is filtered off and the flies are transferred to clean Petri dishes (10 cm in diameter) on the bottom of which a round filter paper has been placed.
The animals in supine position are counted after 4 and 24 hours.

[3] = test system: granery weevils (Sitophilus granarius); assay: Synergistic action on granary weevils (treated Petri dishes); conditions: single substance; 4 hours exposure, kill rate after 24 hours
Experimental: Synergistic action on granery weevils (Sitophilus granarius)
Petri dishes 10 cm in diameter are lined with acetonic solutions of the active ingredients. After the solvent has evaporated, 50 granary weevils are placed in each dish.
After 4 hours, the weevils are transferred to untreated vessels. The kill rate is determined after 24 hours, by counting how many weevils are, after this period has elapsed, capable of leaving an untreated cardboard dish (40 mm in diameter, 10 mm high) within 60 minutes.

[4] = test system: houseflies (Musca domestica); assay: Synergistic action on houseflies; continuous contact (Petri dish); conditions: single substance; kill rate after 4 hours
Experimental: Synergistic action on houseflies (Musca domestica); continuous contact
Both covers and bottoms of Petri dishes 10 cm in diameter are lined with a total per dish of 2 ml of acetonic solutions of the active ingredients. After the solvent has evaporated (about 30 mins.), 10 flies are introduced into each dish.
The kill rate is determined after 4 hours and the LD50 is determined graphically.

[5] = test system: houseflies (Musca domestica); assay: Contact action on houseflies (application to ventral abdomen); conditions: single substance; kill rate after 4 hours
Experimental: Contact action on houseflies (Musca domestica)
1 μl of the active ingredient dissolved in acetone is administered to the ventral abdomen of 4-day old imagoes under slight CO2 narcosis. 20 animals treated in the same way are then placed in a cellophane bag having a volume of approximately 500 ml.
After 4 hours the kill rate is determined, a dose-mortality curve is drawn from the different concentrations, and the LD50 is worked out.

2,5-diethylphenyl-N-methylcarbamate [Fenethcarb, reference compound]
LD 50 [1]: 0.45 mg

C=CCC1=C(C)C(OC(=O)C2C(C=C(C)C)C2(C)C)CC1=O (mixture of isomers) [Allethrin, DL-2-allyl-3-methylcyclopenten-2-on-(1)-yl-(4)-DL-cis,trans-chrysanthemate, reference compound]
LD 50 [1]: 0.11 mg

CCOC(=O)CC(SP(=S)(OC)OC)C(=O)OCC (centres unmarked) [Malathion, reference compound]
LD 50 [1]: 0.12 mg

ClC(Cn1cncn1)c1ccccc1 (centres unmarked) [No. 1]
LD 50 [1]: > 5.0 mg
LD 50 after 4 hours [2]: 0.085%
LD 50 after 24 hours [2]: 0.05%
LD 50 [3]: > 2 mg and > 1 mg
LD 50 [4]: > 2.0 mg

ClC(Cn1cncn1)c1ccccc1 (centres unmarked) [No. 2]
LD 50 [1]: > 5.0 mg
LD 50 after 4 hours [2]: > 0.2%
LD 50 after 24 hours [2]: 0.1%
LD 50 [4]: 0.2 mg

Clc1ccc(C=Cn2cncn2)c(Cl)c1 [No. 3]
LD 50 [1]: > 5.0 mg
LD 50 after 4 hours [2]: 0.2%
LD 50 after 24 hours [2]: 0.05%

Fc1ccc(C=Cn2cncn2)cc1 [No. 4]
LD 50 [1]: > 5.0 mg
LD 50 [4]: > 2.0 mg

c1ccc(CCCn2cncn2)cc1 [No. 5]
LD 50 [1]: > 2.0 mg
LD 50 after 4 hours [2]: > 0.2%
LD 50 after 24 hours [2]: 0.05%
LD 50 [5]: > 10 μg/fly
LD 50 [3]: > 2 mg

C(=Cc1ccccc1)Cn1cncn1 [No. 6]
LD 50 [1]: 9.0 mg
LD 50 after 4 hours [2]: > 0.2%
LD 50 after 24 hours [2]: 0.07%
LD 50 [3]: > 2 mg

CC(c1ccccc1)n1cncn1 (centres unmarked) [No. 7]
LD 50 [1]: > 2.0 mg

C=C(Cn1cncn1)c1ccccc1 [No. 8]
LD 50 [1]: 9.0 mg
LD 50 [3]: > 2 mg

Cc1ccc(Cn2cncn2)cc1 [No. 9]
LD 50 [1]: > 2.0 mg
LD 50 [3]: > 4 mg

CCc1ccc(Cn2cncn2)cc1 [No. 10]
LD 50 [1]: > 2.0 mg
LD 50 [3]: > 2 mg

CC(C)(C)c1ccc(Cn2cncn2)cc1 [No. 11]
LD 50 [1]: > 10.0 mg
LD 50 [3]: > 2 mg

Cc1nc(N(C)C)nc(OC(=O)N(C)C)c1C [Pirimicarb, 2-dimethylamino-5,6-dimethyl-4-pyrimidinyl-N,N-dimethylcarbamate, reference compound]
LD 50 [1]: > 30 mg
LD 50 after 4 hours [2]: 0.05%
LD 50 after 24 hours [2]: 0.04%

Source: patent publication US4315017A, “Triazole derivatives” (priority 1978, dated 1982)
